Reference: patent US7146278B2, “Method of selecting marker molecules for prediction of molecular activity” (Accelrys Software Inc., priority 2001, dated 2006)
Read-outs that look alike come from different tables or passages of the source.

What was measured:
serum proteins [1] = conditions: cited from earlier work; for % PB: marker molecules, training set from Goodman & Gilman 9th ed.
serum proteins [2] = test: Percent protein bound in serum (literature % PB data); conditions: binary class: highly protein bound (DTC) or not
Description: Drugs may bind to a variety of components in the blood, including albumin, a1-acid glyciprotein (AAG), lipoproteins, immunoglobulins, sex hormone binding globulins, and erythrocytes. […] Some foreknowledge of the protein binding characteristics of a molecule would help provide a better estimate of the pharmacodynamics and pharmacokinetics of the molecule. […] In addition, hepatic extraction is directly proportional to fu. […] The maximum oral bioavailability is directly related to the hepatic extraction ratio, which is in part dependent upon the fu. Disease states causing significant drop in serum albumin, e.g. nephrotic syndrome, where serum albumin concentrations are halved, cause a corresponding 2-fold decrease in half-life for clofibrate.
Using the principles of predictive model development described herein, a model for classifying compounds as highly protein bound (>90% bound) or not highly protein bound (<90% bound) was created. The model development methods are thus described below using a protein binding model as one example application. The model development methods of the invention may also be applied to the creation of other prediction models, such as models to predict CYP450 metabolism, inhibition, and activation, as well as p-Glycoprotein efflux.
The method next advances to the process block 14 where a reference (“training”) set of molecules is classified according to the property of interest. The larger the training set of molecules is (>50 preferably), the better the method should perform. Preferably each of the molecules in the training set has a known binary classification for the property of interest. […] For illustration, an example training set of ten molecules for a protein binding prediction model may be as follows:
The method next advances to a process block 16, where a subset of the training set of molecules is chosen such that the subset includes the molecules in the training set that have the desired property of interest. In one embodiment, molecules in this subset are referred to as Desired Target Class (“DTC”) molecules.
The above simplified example includes 10 training dataset molecules. […] The following compounds were excluded because they lacked % PB values or belonged to an unusual structural class: atracurium, auranofin, azathioprine, bleomycin, bretylium, busulfan, capreomycin, carboplatin, carmustine, cisplatin, clemastine, dobutamine, enoxacin, ethanol, foscarnet, gold sodium thiomalate, isosorbide-5-mononitrate, isosorbide dinitrate, levodopa, levonorgestrel, methohexital, methylprednisolone, nalbuphine, naloxone, neostigmine, nitroglycerin, pancuronium, pipecuronium, prednisolone, prednisone, pyridostigmine, scopolamine, tubocurarine, vecuronium.
A test dataset was also assembled to verify model performance.

[3] = biological target: Human serum albumin (HSA) (Homo sapiens, UniProt P02768); conditions: site I warfarin site, site II benzodiazepines/NSAIDS site; cited from earlier work
[4] = nephrotic syndrome, serum albumin concentrations halved; cited from earlier work
[5] = training set (Goodman & Gilman) or PDR test set
[6] = example training set of ten molecules

Chain of Human serum albumin (HSA) (P02768 25-609): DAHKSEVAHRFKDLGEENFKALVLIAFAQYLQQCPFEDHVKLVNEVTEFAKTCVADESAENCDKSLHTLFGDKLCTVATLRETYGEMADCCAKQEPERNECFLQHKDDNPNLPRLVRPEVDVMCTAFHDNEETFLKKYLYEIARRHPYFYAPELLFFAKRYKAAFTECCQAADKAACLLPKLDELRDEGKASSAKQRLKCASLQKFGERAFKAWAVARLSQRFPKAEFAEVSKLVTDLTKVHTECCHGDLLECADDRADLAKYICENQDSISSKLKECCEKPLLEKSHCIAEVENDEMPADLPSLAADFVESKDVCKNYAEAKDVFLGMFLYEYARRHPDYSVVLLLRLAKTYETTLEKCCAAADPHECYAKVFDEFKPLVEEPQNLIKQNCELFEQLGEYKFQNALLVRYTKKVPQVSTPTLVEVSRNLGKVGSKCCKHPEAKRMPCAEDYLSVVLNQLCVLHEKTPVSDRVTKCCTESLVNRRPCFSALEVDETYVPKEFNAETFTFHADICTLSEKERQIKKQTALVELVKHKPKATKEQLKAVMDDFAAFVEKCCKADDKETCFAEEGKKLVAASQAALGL

| SMILES | % PB (serum proteins [1]) [%] | further results |
| --- | --- | --- |
| COc1ccc2cc(CCC(C)=O)ccc2c1 [NABUMETONE] | 99 |  |
| CN1C(=O)CN=C(c2ccccc2)c2cc(Cl)ccc21 [DIAZEPAM] |  | Classification (serum proteins [2]): 1 (highly protein bound (>90% bound)) |
| CCOC(=O)[C@H](CCc1ccccc1)N[C@H]1CCc2ccccc2N(CC(=O)O)C1=O [BENAZEPRIL] | 97 |  |
| Fc1ccc([C@@H]2CCNC[C@H]2COc2ccc3c(c2)OCO3)cc1 [PAROXETINE] | 95 | % Protein Bound (serum proteins [1]; [5]): 95% |
| CC(N)C12CC3CC(CC(C3)C1)C2 (stereo not shown) [RIMANTADINE] |  | Classification (serum proteins [2]): 0 (not highly protein bound (<90% bound)); % Protein Bound (serum proteins [1]; [6]): 40.0% |
| COc1ccc2cc([C@H](C)C(=O)O)ccc2c1 [NAPROXEN] |  | Classification (serum proteins [2]): 1 (highly protein bound (>90% bound)) |
| CC1=C(CC(=O)O)c2cc(F)ccc2/C1=C\c1ccc([S+](C)[O-])cc1 (stereo not shown) | 94 |  |
| CN1C(C(=O)Nc2ccccn2)=C(O)c2ccccc2S1(=O)=O [PIROXICAM] | 98.5 |  |
| CC(C(=O)O)c1ccc(-c2ccccc2)c(F)c1 (stereo not shown) [FLURBIPROFEN] | 99.5 | Classification (serum proteins [2]): 1 (highly protein bound (>90% bound)); % Protein Bound (serum proteins [1]; [6]): 99.5% |
| CN(C)c1ccc(O)c2c1C[C@H]1C[C@H]3[C@H](N(C)C)C(O)=C(C(N)=O)C(=O)[C@@]3(O)C(O)=C1C2=O [MINOCYCLINE] |  | Classification (serum proteins [2]): 0 (not highly protein bound (<90% bound)); % Protein Bound (serum proteins [1]; [6]): 76.0% |
| O=C(O)c1cc(-c2ccc(F)cc2F)ccc1O [DIFLUNISAL] | 99.9 |  |
| O=C(O)C1N=C(c2ccccc2)c2cc(Cl)ccc2NC1=O (stereo not shown) [CLORAZEPATE] | 96.9 |  |
| COC(=O)C1=C(C)NC(C)=C(C(=O)OC(C)C)C1c1cccc2nonc12 (stereo not shown) [ISRADIPINE] | 97 |  |
| O=C1CN=C(c2ccccc2)c2cc(Cl)ccc2N1CC1CC1 [PRAZEPAM] | 95.5 |  |
| CCC(C)n1ncn(-c2ccc(N3CCN(c4ccc(OCC5COC(Cn6cncn6)(c6ccc(Cl)cc6Cl)O5)cc4)CC3)cc2)c1=O (stereo not shown) [ITRACONAZOLE] | 99.8 |  |
| CCc1cccc2c3c([nH]c12)C(CC)(CC(=O)O)OCC3 (stereo not shown) [ETODOLAC] | 99.1 |  |
| COC(=O)[C@H](c1ccccc1Cl)N1CCc2sccc2C1 [clopidogrel] |  | % Protein Bound (serum proteins [1]; [5]): 98% |
| CCCC(CCC)C(=O)O [Valproic acid] |  | HSA binding site [3]: bind to both HSA Sites I and II |
| NCCCC[C@H](N[C@@H](CCc1ccccc1)C(=O)O)C(=O)N1CCC[C@H]1C(=O)O [LISINOPRIL] |  | Classification (serum proteins [2]): 0 (not highly protein bound (<90% bound)) |
| O=C1CN=C(c2ccccc2)c2cc(Cl)ccc2N1 [NORDAZEPAM] | 97.5 |  |
| CCc1nc(N)nc(N)c1-c1ccc(Cl)cc1 [PYRIMETHAMINE] |  | Classification (serum proteins [2]): 0 (not highly protein bound (<90% bound)); % Protein Bound (serum proteins [1]; [6]): 87.0%; % Protein Bound (serum proteins [1]; [5]): 87% |
| CNCCCC1c2ccccc2C=Cc2ccccc21 [PROTRIPTYLINE] | 92 |  |
| CC(C(=O)O)c1ccc(C(=O)c2cccs2)cc1 (stereo not shown) [Suprofen] |  | HSA binding site [3]: binds to HSA site II |
| COC(=O)C1=C(C)NC(C)=C(C(=O)OCCN(C)Cc2ccccc2)C1c1cccc([N+](=O)[O-])c1 (stereo not shown) [NICARDIPINE] | 99 |  |

| SMILES | % PB (serum proteins [1]) [%] | further results |
| --- | --- | --- |
| COC(=O)C(C)c1ccc(C(=O)c2cccs2)cc1 (stereo not shown) [suprofen methyl ester] |  | HSA binding site [3]: binds to HSA site I |
| CCCCNc1cc(C(=O)O)cc(S(N)(=O)=O)c1Oc1ccccc1 [BUMETANIDE] | 99 |  |
| CC(=O)CC(c1ccccc1)c1c(O)c2ccccc2oc1=O (stereo not shown) [WARFARIN] |  | Classification (serum proteins [2]): 1 (highly protein bound (>90% bound)) |
| Cc1cnc(C(=O)NCCc2ccc(S(=O)(=O)NC(=O)NC3CCCCC3)cc2)cn1 [GLIPIZIDE] | 98.4 |  |
| CCOC(=O)C1=C(C)NC(C)=C(C(=O)OC)C1c1cccc([N+](=O)[O-])c1 (stereo not shown) [NITRENDIPINE] | 98 |  |
| NS(=O)(=O)c1cc2c(cc1Cl)NCNS2(=O)=O [HYDROCHLOROTHIAZIDE] |  | Classification (serum proteins [2]): 0 (not highly protein bound (<90% bound)); % Protein Bound (serum proteins [1]; [6]): 58.0% |
| CC(=O)N1CCN(c2ccc(OCC3COC(Cn4ccnc4)(c4ccc(Cl)cc4Cl)O3)cc2)CC1 (stereo not shown) [KETOCONAZOLE] | 99 |  |
| O=c1n(CCCN2CCN(c3cccc(Cl)c3)CC2)nc2ccccn12 [TRAZODONE] | 93 |  |
| Cc1ccc(C(=O)c2ccc(CC(=O)O)n2C)cc1 [TOLMETIN] | 99.6 |  |
| CCOC(=O)C1=C(COCCN)NC(C)=C(C(=O)OC)C1c1ccccc1Cl (stereo not shown) [AMLODIPINE] | 93 |  |
| O=c1[nH]c2ccccc2n1C1CCN(CCCC(c2ccc(F)cc2)c2ccc(F)cc2)CC1 [PIMOZIDE] | 99 |  |
| CN1C(=O)C(O)N=C(c2ccccc2)c2cc(Cl)ccc21 (stereo not shown) [TEMAZEPAM] | 97.6 |  |
| CCN(CC)CCN1C(=O)CN=C(c2ccccc2F)c2cc(Cl)ccc21 [FLURAZEPAM] | 96.6 |  |
| CCOC(=O)C1=C(C)NC(C)=C(C(=O)OC)C1c1cccc(Cl)c1Cl (stereo not shown) [FELODIPINE] | 99.6 |  |
| CCOC(=O)C(C)(C)Oc1ccc(Cl)cc1 [CLOFIBRATE] | 96.5 | decrease in half-life [4]: 2 fold |
| CN(C)CCCN1c2ccccc2CCc2ccccc21 [IMIPRAMINE] | 90.1 |  |
| O=C1Nc2ccc(Cl)cc2C(c2ccccc2Cl)=NC1O (stereo not shown) [LORAZEPAM] | 91 |  |
| O=C1Nc2ccc(Cl)cc2C(c2ccccc2)=NC1O (stereo not shown) [OXAZEPAM] | 98.8 |  |
| NS(=O)(=O)c1cc(C(=O)O)c(NCc2ccco2)cc1Cl [FUROSEMIDE] | 98.8 |  |
| Cc1ccc(-c2nc3ccc(C)cn3c2CC(=O)N(C)C)cc1 [ZOLPIDEM] | 92 |  |
| O=C(c1ccccc1)c1ccc2n1CCC2C(=O)O (stereo not shown) [KETOROLAC] | 99.2 |  |
| COc1ccc(Cl)cc1C(=O)NCCc1ccc(S(=O)(=O)NC(=O)NC2CCCCC2)cc1 [GLYBURIDE] | 99.8 |  |
| Clc1cccc(Cl)c1N=C1NCCN1 [CLONIDINE] |  | Classification (serum proteins [2]): 0 (not highly protein bound (<90% bound)); % Protein Bound (serum proteins [1]; [6]): 30.0% |
| COCCOC(=O)C1=C(C)NC(C)=C(C(=O)OC(C)C)C1c1cccc([N+](=O)[O-])c1 (stereo not shown) [NIMODIPINE] | 98 |  |
